# According to paper PMC10041525, “New Dual Inhibitors of Bacterial Topoisomerases with Broad-Spectrum Antibacterial Activity and In Vivo Efficacy against Vancomycin-Intermediate Staphylococcus aureus” (Journal of Medicinal Chemistry, 2023):
# Several values for one entry are separate records, joined by “and”; a condition that tells them apart may be missing. Equal values may be shown once. Read-outs that look alike come from different tables or passages of the source.
# What was measured:
# physchem = format: physicochemical; conditions: for solubility thermodynamic at 24 h / solubility thermodynamic at 48 h: phosphate-buffered saline (PBS)
# Procedure: For the PBS, 2.38 g of disodium hydrogen phosphate dodecahydrate, 0.19 g of potassium dihydrogen phosphate, and 8.0 g of sodium chloride were added to distilled water (900 mL), and the solution was mixed overnight. […] Samples were prepared by weighing the exact mass of solid compounds (about 1 mg), and then, the appropriate volume of PBS was added to reach the final concentration of ∼1 mg/mL. […] The supernatant was diluted 3× with a 1:1 mixture of 0.1% TFA in water and acetonitrile and analyzed by HPLC. For the 7-point calibration curves, concentrated stock solutions of the compounds were prepared at concentrations of 10 and 0.5 mM in DMSO, which were diluted with a 1:1 mixture of 0.1% TFA in water and acetonitrile to the desired final concentrations and analyzed by HPLC. Results are given in μM as an average value of two independent experiments. For details on calibration curves, concentrations, analytical method, and HPLC method, see the Supporting Information.
# Thermodynamic solubility assay
# To determine thermodynamic solubility of compounds in PBS, calibration curves for the assayed compounds were prepared using seven concentrations. First, DMSO stock solutions of compounds at 10 mM and 0.5 mM concentration were prepared and then diluted (0.1% TFA in […]
# Quality control (QC) samples were diluted from stock solutions with a 1:1 mixture of 0.1% TFA in water and acetonitrile to final concentrations of 60 µM, 20 µM, and 2 µM (6 µM, 2 µM, and 0.2 µM for 7f or 0.6 µM, 0.2 µM, and 0.02 µM for 7g).
# Analytical reversed-phase UHPLC analyses were performed on Thermo Scientific Dionex UltiMate 3000 modular system (Thermo Fisher Scientific Inc., MA, USA). Waters Acquity UPLC® HSS C18 SB column (2.1 × 50 mm, 1.8 μm; Waters, Milford, MA, USA) was used at T […]
# Mobile phase consisted of 0.1% trifluoroacetic acid in ultrapure water (solvent A) and acetonitrile […]
# The obtained data was processed in Chromeleon CDS software (Thermo Fisher Scientific Inc., […]
# Analytical method was tested for accuracy, precision and linear rang. Accuracy was […]
# (or 2 or 0.2) µM and 60 (or 6 or 0.6) µM) to their true values and expressed in (%). Values were […]
# Method repeatability was determined by calculating the RSD from the separately prepared and analysed quality control samples (n = 3). […] Linearity of the […]
# method (1 (or 0.1 or 0.01) µM to 100 (or 10 or 1) µM) was evaluated from the 7-point calibration […]
# Solubility was determined in two independent experiments and results were calculated in […]
# P. aeruginosa ATCC 27853 = experiment: IHMA QC MIC; format: cell-based
# E. coli ATCC 35218 = experiment: IHMA QC MIC; format: cell-based
# Procedure: (§1) The panel of Hungarian clinical isolates and controls measured following the same method as detailed above, and albeit measurements were carried out in 384-well microtiter plates (Corning Inc.).
# A. baumannii ATCC 17978 = experiment: IHMA QC MIC; format: cell-based
# Procedure: as §1
# [1] = pH 7.4, PBS pH 7.4, read-out: thermodynamic solubility, Experiment 1
# [2] = pH 7.4, PBS pH 7.4, read-out: thermodynamic solubility, Experiment 2
# [3] = pH 7.4, thermodynamic solubility (pH = 7.4), PBS, 37 °C, 24 h, mean of two
# [4] = Pseudomonas aeruginosa, ATCC27853, QC strain P. aeruginosa ATCC 27853, test date 2021-11-11, read-out: MIC
# [5] = Pseudomonas aeruginosa, ATCC27853, QC strain P. aeruginosa ATCC 27853, test date 2021-11-26, read-out: MIC
# [6] = Escherichia coli, ATCC35218; read-out: MIC (QC, repeated tests)
# [7] = Pseudomonas aeruginosa, ATCC27853, read-out: MIC (QC, repeated tests)
# [8] = Acinetobacter baumannii, ATCC17978; read-out: MIC (QC, repeated tests)
compound,measurement,setting,value
"Cc1[nH]c(C(=O)Nc2nc3c(N4CCOCC4C)cc(C(=O)O)cc3s2)c(Cl)c1Cl (centres unmarked) [7b, 2-(3,4-Dichloro-5-methyl-1H-pyrrole-2-carboxamido)-4-(3-methylmorpholino)benzo[d]thiazole-6-carboxylic Acid]",solubility thermodynamic at 24 h,physchem; [1],59.6 µM
same,solubility thermodynamic at 24 h,physchem; [2],76.6 µM
same,solubility thermodynamic at 24 h,physchem; [3],68.1 µM
same,solubility thermodynamic at 48 h,physchem; [3],68 µM
"Cc1[nH]c(C(=O)Nc2nc3c(N4CCOC[C@H]4C)cc(C(=O)O)cc3s2)c(Cl)c1Cl [7c, (R)-2-(3,4-Dichloro-5-methyl-1H-pyrrole-2-carboxamido)-4-(3-methylmorpholino)benzo[d]thiazole-6-carboxylic Acid]",thermodynamic solubility (pH = 7.4),"physchem; PBS, 37 °C, 24 h, mean of two",10.14 µM
same,solubility thermodynamic at 24 h,physchem; [1],8.67 µM
same,solubility thermodynamic at 24 h,physchem; [2],11.6 µM
same,solubility thermodynamic at 24 h,physchem; [3],10.1 µM
"Cc1[nH]c(C(=O)Nc2nc3c(N4CCOC[C@@H]4C)cc(C(=O)O)cc3s2)c(Cl)c1Cl [7d, (S)-2-(3,4-Dichloro-5-methyl-1H-pyrrole-2-carboxamido)-4-(3-methylmorpholino)benzo[d]thiazole-6-carboxylic Acid]",thermodynamic solubility (pH = 7.4),"physchem; PBS, 37 °C, 24 h, mean of two",5.84 µM
same,solubility thermodynamic at 24 h,physchem; [1],5.6 µM
same,solubility thermodynamic at 24 h,physchem; [2],6.07 µM
same,solubility thermodynamic at 24 h,physchem; [3],5.8 µM
"Cc1[nH]c(C(=O)Nc2nc3c(N4CCOC(C)C4)cc(C(=O)O)cc3s2)c(Cl)c1Cl (centres unmarked) [7e, 2-(3,4-Dichloro-5-methyl-1H-pyrrole-2-carboxamido)-4-(2-methylmorpholino)benzo[d]thiazole-6-carboxylic Acid]",thermodynamic solubility (pH = 7.4),"physchem; PBS, 37 °C, 24 h, mean of two",80.35 µM
same,solubility thermodynamic at 24 h,physchem; [1],71.9 µM
same,solubility thermodynamic at 24 h,physchem; [2],88.8 µM
same,solubility thermodynamic at 24 h,physchem; [3],80.4 µM
same,solubility thermodynamic at 48 h,physchem; [3],80 µM
"Cc1[nH]c(C(=O)Nc2nc3c(N4CC(C)OC(C)C4)cc(C(=O)O)cc3s2)c(Cl)c1Cl (centres unmarked) [7f, 2-(3,4-Dichloro-5-methyl-1H-pyrrole-2-carboxamido)-4-(2,6-dimethylmorpholino)benzo[d]thiazole-6-carboxylic Acid]",solubility thermodynamic at 24 h,physchem; [1],0.95 µM
same,solubility thermodynamic at 24 h,physchem; [2],0.89 µM
same,solubility thermodynamic at 24 h,physchem; [3],0.92 µM
"Cc1[nH]c(C(=O)Nc2nc3c(N4C[C@H]5CC[C@@H](C4)O5)cc(C(=O)O)cc3s2)c(Cl)c1Cl [7g, 4-((1R,5S)-8-Oxa-3-azabicyclo[3.2.1]octan-3-yl)-2-(3,4-dichloro-5-methyl-1H-pyrrole-2-carboxamido)benzo[d]thiazole-6-carboxylic Acid]",solubility thermodynamic at 24 h,physchem; [1],0.33 µM
same,solubility thermodynamic at 24 h,physchem; [2],0.19 µM
same,solubility thermodynamic at 48 h,physchem; [3],0.26 µM
"Cc1[nH]c(C(=O)Nc2nc3c(N4CCOC(C(F)(F)F)C4)cc(C(=O)O)cc3s2)c(Cl)c1Cl (centres unmarked) [7i, 2-(3,4-Dichloro-5-methyl-1H-pyrrole-2-carboxamido)-4-(2-(trifluoromethyl)morpholino)benzo[d]thiazole-6-carboxylic Acid]",solubility thermodynamic at 24 h,physchem; [1],10.7 µM
same,solubility thermodynamic at 24 h,physchem; [3],10.7 µM
same,solubility thermodynamic at 48 h,physchem; [3],11 µM
"COCC1CCCN1c1cc(C(=O)O)cc2sc(NC(=O)c3[nH]c(C)c(Cl)c3Cl)nc12 (centres unmarked) [7n, 2-(3,4-Dichloro-5-methyl-1H-pyrrole-2-carboxamido)-4-(2-(methoxymethyl)pyrrolidin-1-yl)benzo[d]thiazole-6-carboxylic Acid]",thermodynamic solubility (pH = 7.4),"physchem; PBS, 37 °C, 24 h, mean of two",11.18 µM
same,solubility thermodynamic at 24 h,physchem; [1],11 µM
same,solubility thermodynamic at 24 h,physchem; [2],11.4 µM
same,solubility thermodynamic at 24 h,physchem; [3],11.2 µM
"COC[C@@H]1CCCN1c1cc(C(=O)O)cc2sc(NC(=O)c3[nH]c(C)c(Cl)c3Cl)nc12 [7o, (S)-2-(3,4-Dichloro-5-methyl-1H-pyrrole-2-carboxamido)-4-(2-(methoxymethyl)pyrrolidin-1-yl)benzo[d]thiazole-6-carboxylic Acid]",thermodynamic solubility (pH = 7.4),"physchem; PBS, 37 °C, 24 h, mean of two",10.98 µM
same,solubility thermodynamic at 24 h,physchem; [1],10.6 µM
same,solubility thermodynamic at 24 h,physchem; [2],11.4 µM
same,solubility thermodynamic at 24 h,physchem; [3],11 µM
"Cc1[nH]c(C(=O)Nc2nc3c(N4CCC(O)CC4)cc(C(=O)O)cc3s2)c(Cl)c1Cl [7p, 2-(3,4-Dichloro-5-methyl-1H-pyrrole-2-carboxamido)-4-(4-hydroxypiperidin-1-yl)benzo[d]thiazole-6-carboxylic Acid]",thermodynamic solubility (pH = 7.4),"physchem; PBS, 37 °C, 24 h, mean of two",183.7 µM and 183.67 µM
same,solubility thermodynamic at 24 h,physchem; [1],279 µM
same,solubility thermodynamic at 24 h,physchem; [2],88.3 µM
same,solubility thermodynamic at 24 h,physchem; [3],184 µM
"Cc1[nH]c(C(=O)Nc2nc3c(N4CCOCC4)cc(C(=O)O)cc3s2)cc1Cl [16a, 2-(4-Chloro-5-methyl-1H-pyrrole-2-carboxamido)-4-morpholinobenzo[d]thiazole-6-carboxylic Acid]",thermodynamic solubility (pH = 7.4),"physchem; PBS, 37 °C, 24 h, mean of two",137.58 µM
same,solubility thermodynamic at 24 h,physchem; [1],134 µM
same,solubility thermodynamic at 24 h,physchem; [2],141 µM
same,solubility thermodynamic at 24 h,physchem; [3],138 µM
same,solubility thermodynamic at 48 h,physchem; [3],137 µM
"Cc1[nH]c(C(=O)Nc2nc3c(N4CCOCC4)cc(C(=O)O)cc3s2)cc1F [16b, 2-(4-Fluoro-5-methyl-1H-pyrrole-2-carboxamido)-4-morpholinobenzo[d]thiazole-6-carboxylic Acid]",thermodynamic solubility (pH = 7.4),"physchem; PBS, 37 °C, 24 h, mean of two",131.4 µM and 131.42 µM
same,solubility thermodynamic at 24 h,physchem; [1],140 µM
same,solubility thermodynamic at 24 h,physchem; [2],123 µM
same,solubility thermodynamic at 24 h,physchem; [3],131 µM
"CC1(C)S[C@@H]2[C@H](NC(=O)[C@H](N)c3ccccc3)C(=O)N2[C@H]1C(=O)O [Ampicillin, ampicillin]",MIC,P. aeruginosa ATCC 27853; [4],> 32 µg/mL
same,MIC,P. aeruginosa ATCC 27853; [5],> 32 µg/mL
"CO/N=C(\C(=O)N[C@@H]1C(=O)N2C(C(=O)[O-])=C(C[N+]3(C)CCCC3)CS[C@H]12)c1csc(N)n1 [Cefepime, cefepime]",MIC,E. coli ATCC 35218; [6],≤ 0.25 µg/mL
"C[C@@H](O)[C@H]1C(=O)N2C(C(=O)O)=C(SCCNC=N)C[C@H]12 [Imipenem, imipenem]","MIC (QC, repeated tests)",P. aeruginosa ATCC 27853,1 µg/mL
same,MIC,P. aeruginosa ATCC 27853; [4],2 µg/mL
same,MIC,P. aeruginosa ATCC 27853; [5],2 µg/mL
same,MIC,P. aeruginosa ATCC 27853; [7],2 µg/mL
same,MIC,E. coli ATCC 35218; [6],≤ 0.25 µg/mL
same,MIC,A. baumannii ATCC 17978; [8],≤ 0.25 µg/mL
"C[C@H]1COc2c(N3CCN(C)CC3)c(F)cc3c(=O)c(C(=O)O)cn1c23.C[C@H]1COc2c(N3CCN(C)CC3)c(F)cc3c(=O)c(C(=O)O)cn1c23.O [Levofloxacin, levofloxacin]",MIC,"P. aeruginosa ATCC 27853; Pseudomonas aeruginosa, ATCC27853, QC strain P. aeruginosa ATCC 27853, test date 2021-11-11",2 µg/mL
same,MIC,"P. aeruginosa ATCC 27853; Pseudomonas aeruginosa, ATCC27853, QC strain P. aeruginosa ATCC 27853, test date 2021-11-26",1 µg/mL
same,MIC,"P. aeruginosa ATCC 27853; QC strain P. aeruginosa ATCC 27853, test date 2021-11-11",1 µg/mL
same,MIC,"E. coli ATCC 35218; Escherichia coli, ATCC35218, read-out: MIC (QC, repeated tests)",≤ 0.25 µg/mL
same,MIC,"A. baumannii ATCC 17978; Acinetobacter baumannii, ATCC17978, read-out: MIC (QC, repeated tests)",≤ 0.25 µg/mL
"C[C@@H](O)[C@H]1C(=O)N2C(C(=O)O)=C(S[C@@H]3CN[C@H](C(=O)N(C)C)C3)[C@H](C)[C@H]12 [Meropenem, meropenem]","MIC (QC, repeated tests)",P. aeruginosa ATCC 27853,1 µg/mL
same,MIC,P. aeruginosa ATCC 27853; [7],0.5 µg/mL
same,MIC,E. coli ATCC 35218; [6],≤ 0.06 µg/mL
"COc1c(N2C[C@@H]3CCCN[C@@H]3C2)c(F)cc2c(=O)c(C(=O)O)cn(C3CC3)c12 [Moxifloxacin, moxifloxacin]",MIC,P. aeruginosa ATCC 27853; [7],2 µg/mL
same,MIC,E. coli ATCC 35218; [6],≤ 0.5 µg/mL
same,MIC,A. baumannii ATCC 17978; [8],≤ 0.5 µg/mL
"CN(C)c1cc(NC(=O)CNC(C)(C)C)c(O)c2c1C[C@H]1C[C@H]3[C@H](N(C)C)C(O)=C(C(N)=O)C(=O)[C@@]3(O)C(O)=C1C2=O [Tigecycline, tigecycline]","MIC (QC, repeated tests)",P. aeruginosa ATCC 27853,4 µg/mL
same,MIC,P. aeruginosa ATCC 27853; [7],8 µg/mL
same,MIC,E. coli ATCC 35218; [6],0.12 µg/mL
same,"MIC (QC, repeated tests)",A. baumannii ATCC 17978,0.5 µg/mL
same,MIC,A. baumannii ATCC 17978; [8],0.25 µg/mL
piperacillin/tazobactam [Piperacillin Tazobactam],"MIC (QC, repeated tests)",P. aeruginosa ATCC 27853,4 µg/mL and 8 µg/mL
same,"MIC (QC, repeated tests)",E. coli ATCC 35218,1 µg/mL
